In the Kinase Knowledgebase extract (Sharma et al. 2016):

Assays:
PIK3CG (human) = PIK3CG (human) (UniProt P48736); assay: Enzyme Assay
PIK3CD (Human) [1] = biological target: PIK3CD (Human) (UniProt O00329); assay: Enzyme Assay
PIK3CB (Human) = PIK3CB (Human) (UniProt P42338); assay: Enzyme Assay
PIK3CD (Human) [2] = biological target: PIK3CD (Human) (UniProt O00329); assay: Cell-Based Assay; conditions: raji

Sequence of PIK3CD (Human) (O00329 whole entry, looked up): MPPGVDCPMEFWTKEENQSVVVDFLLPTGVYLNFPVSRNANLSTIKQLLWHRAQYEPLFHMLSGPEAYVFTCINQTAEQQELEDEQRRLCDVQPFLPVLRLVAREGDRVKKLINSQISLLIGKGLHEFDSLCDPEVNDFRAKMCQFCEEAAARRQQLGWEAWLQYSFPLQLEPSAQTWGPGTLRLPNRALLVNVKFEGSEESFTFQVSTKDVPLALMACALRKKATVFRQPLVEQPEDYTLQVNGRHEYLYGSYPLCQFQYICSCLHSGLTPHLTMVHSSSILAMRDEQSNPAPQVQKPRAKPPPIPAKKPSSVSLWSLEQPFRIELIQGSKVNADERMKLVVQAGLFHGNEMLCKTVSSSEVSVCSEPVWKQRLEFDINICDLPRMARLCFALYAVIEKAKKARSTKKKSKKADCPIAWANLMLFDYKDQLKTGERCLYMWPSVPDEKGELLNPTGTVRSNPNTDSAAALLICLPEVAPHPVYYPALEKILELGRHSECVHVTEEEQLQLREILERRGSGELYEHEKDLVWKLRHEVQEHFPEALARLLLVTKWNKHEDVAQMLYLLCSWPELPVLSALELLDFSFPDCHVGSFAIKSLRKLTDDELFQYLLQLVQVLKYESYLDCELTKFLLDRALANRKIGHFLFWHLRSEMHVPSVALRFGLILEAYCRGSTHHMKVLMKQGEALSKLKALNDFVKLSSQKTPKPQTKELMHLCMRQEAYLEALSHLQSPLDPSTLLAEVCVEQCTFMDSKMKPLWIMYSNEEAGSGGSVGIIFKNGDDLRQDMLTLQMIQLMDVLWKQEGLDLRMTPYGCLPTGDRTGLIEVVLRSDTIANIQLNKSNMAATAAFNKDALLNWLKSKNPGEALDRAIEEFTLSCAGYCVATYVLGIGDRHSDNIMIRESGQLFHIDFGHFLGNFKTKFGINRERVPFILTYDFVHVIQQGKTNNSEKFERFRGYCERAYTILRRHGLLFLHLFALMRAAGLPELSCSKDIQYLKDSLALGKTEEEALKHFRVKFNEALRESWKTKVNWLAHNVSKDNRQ
Sequence of PIK3CG (human) (P48736 whole entry, looked up): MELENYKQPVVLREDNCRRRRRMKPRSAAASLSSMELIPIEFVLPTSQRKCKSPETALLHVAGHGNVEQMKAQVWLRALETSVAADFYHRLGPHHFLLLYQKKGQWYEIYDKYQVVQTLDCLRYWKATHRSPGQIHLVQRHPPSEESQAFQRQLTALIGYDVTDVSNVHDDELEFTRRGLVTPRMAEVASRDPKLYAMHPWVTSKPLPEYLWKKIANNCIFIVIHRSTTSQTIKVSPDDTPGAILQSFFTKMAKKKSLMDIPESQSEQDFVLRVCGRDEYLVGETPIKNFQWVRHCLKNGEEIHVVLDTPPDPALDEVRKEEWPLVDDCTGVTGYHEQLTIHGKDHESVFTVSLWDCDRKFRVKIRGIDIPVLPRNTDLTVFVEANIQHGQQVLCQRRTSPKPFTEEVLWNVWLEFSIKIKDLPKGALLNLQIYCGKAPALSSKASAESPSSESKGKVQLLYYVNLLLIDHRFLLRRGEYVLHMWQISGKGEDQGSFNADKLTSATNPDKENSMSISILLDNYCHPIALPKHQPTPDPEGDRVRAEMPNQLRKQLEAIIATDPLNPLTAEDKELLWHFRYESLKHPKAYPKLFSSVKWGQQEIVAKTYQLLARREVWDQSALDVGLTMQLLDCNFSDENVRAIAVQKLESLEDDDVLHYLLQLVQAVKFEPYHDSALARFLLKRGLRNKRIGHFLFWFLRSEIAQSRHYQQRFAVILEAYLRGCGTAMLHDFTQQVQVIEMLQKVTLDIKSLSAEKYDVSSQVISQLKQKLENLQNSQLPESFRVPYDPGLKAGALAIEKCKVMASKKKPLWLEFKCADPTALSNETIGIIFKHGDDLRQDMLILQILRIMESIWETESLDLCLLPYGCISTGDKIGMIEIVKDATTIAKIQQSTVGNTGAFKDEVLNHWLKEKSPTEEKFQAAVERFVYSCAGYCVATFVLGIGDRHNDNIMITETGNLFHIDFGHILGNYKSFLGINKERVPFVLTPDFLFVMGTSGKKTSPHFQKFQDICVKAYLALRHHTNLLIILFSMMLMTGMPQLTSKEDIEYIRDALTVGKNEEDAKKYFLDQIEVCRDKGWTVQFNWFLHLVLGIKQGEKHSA
Sequence of PIK3CB (Human) (P42338 whole entry, looked up): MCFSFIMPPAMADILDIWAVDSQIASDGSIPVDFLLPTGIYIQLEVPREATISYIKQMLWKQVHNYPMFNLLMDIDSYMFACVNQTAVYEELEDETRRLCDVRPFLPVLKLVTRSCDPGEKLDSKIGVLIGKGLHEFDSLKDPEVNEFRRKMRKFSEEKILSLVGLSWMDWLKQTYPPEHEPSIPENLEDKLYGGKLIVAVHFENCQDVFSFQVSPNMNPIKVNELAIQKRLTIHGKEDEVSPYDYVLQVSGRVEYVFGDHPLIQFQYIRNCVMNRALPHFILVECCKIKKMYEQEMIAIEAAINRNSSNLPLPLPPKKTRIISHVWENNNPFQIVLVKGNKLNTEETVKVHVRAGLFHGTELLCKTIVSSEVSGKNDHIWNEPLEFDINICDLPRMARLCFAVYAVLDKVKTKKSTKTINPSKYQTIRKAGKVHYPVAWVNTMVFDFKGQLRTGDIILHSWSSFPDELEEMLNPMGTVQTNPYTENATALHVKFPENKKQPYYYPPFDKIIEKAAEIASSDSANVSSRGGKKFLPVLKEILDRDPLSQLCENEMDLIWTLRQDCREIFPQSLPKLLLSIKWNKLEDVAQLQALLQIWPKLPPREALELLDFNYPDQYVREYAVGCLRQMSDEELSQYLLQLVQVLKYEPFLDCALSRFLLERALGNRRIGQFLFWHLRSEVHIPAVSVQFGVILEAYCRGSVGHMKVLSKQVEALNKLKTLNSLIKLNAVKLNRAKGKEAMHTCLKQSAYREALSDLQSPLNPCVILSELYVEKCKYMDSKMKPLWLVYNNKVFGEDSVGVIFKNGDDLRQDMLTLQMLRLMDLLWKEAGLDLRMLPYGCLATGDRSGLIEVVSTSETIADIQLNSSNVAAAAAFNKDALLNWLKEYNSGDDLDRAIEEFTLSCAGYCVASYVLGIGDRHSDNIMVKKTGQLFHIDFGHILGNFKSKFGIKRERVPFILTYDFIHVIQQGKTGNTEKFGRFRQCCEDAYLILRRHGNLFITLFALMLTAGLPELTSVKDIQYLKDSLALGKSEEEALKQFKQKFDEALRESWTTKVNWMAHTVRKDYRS

SMILES	IC50 (PIK3CG (human)) [µM]	IC50 (PIK3CD (Human) [1]) [µM]	IC50 (PIK3CB (Human)) [µM]	IC50 (PIK3CD (Human) [2]) [µM]
Cc1ccnc2c(C(=O)N[C@@H](C)c3cc4cccc(C#Cc5cnn(C)c5)c4c(=O)n3-c3ccccc3)cnn12	0.1 to 0.5	5 to 10	5 to 10	
C[C@H](NC(=O)c1c(N)nn2cccnc12)c1cc2cccc(C#Cc3cnn(C)c3)c2c(=O)n1-c1cccc(F)c1	0.001 to 0.1	5 to 10	5 to 10	
CC[C@H](NC(=O)c1c(N)nn2cccnc12)c1cc2cccc(C#Cc3cnn(C)c3)c2c(=O)n1-c1ccccc1	0.001 to 0.1	5 to 10	5 to 10	
C[C@H](NC(=O)c1c(N)nn2cccnc12)c1cc2cccc(N)c2c(=O)n1-c1ccccc1	0.001 to 0.1	1 to 5	1 to 5	
C#Cc1cccc2nc([C@H](C)NC(=O)c3nccnc3N)n(-c3ccccc3)c(=O)c12	0.001 to 0.1	0.001 to 0.5	0.001 to 0.5	
Cn1cc(C#Cc2cccc3cc(CNC(=O)c4c(N)nn5cccnc45)n(-c4ccccc4)c(=O)c23)cn1	1 to 5	5 to 10	5 to 10	
C[C@H](NC(=O)c1c(N)nn2cccnc12)c1cc2cccc(C#Cc3cnn(C)c3)c2c(=O)n1CCS(=O)(=O)N(C)C	0.001 to 0.1	5 to 10	1 to 5	
Cc1nnc(C#Cc2cccc3cc([C@H](C)NC(=O)c4c(N)nn5cccnc45)n(-c4ccccc4)c(=O)c23)s1	0.1 to 0.5	1 to 5	1 to 5	
Cc1ccc(-n2c([C@H](C)NC(=O)c3c(N)nn4cccnc34)cc3cccc(C#Cc4cnn(C)c4)c3c2=O)cc1	0.1 to 0.5	5 to 10	5 to 10	
C[C@H](NC(=O)c1c(N)nn2cccnc12)c1cc2cccc(C#CC3CCN(C)CC3)c2c(=O)n1-c1ccccc1	0.5 to 1	5 to 10	5 to 10	
Cc1ccn2nc(N)c(C(=O)N[C@@H](C)c3cc4cccc(C#Cc5cnn(C)c5)c4c(=O)n3-c3ccccc3)c2n1	0.001 to 0.1	5 to 10	1 to 5	
CC(C)n1c([C@H](C)NC(=O)c2c(N)nn3cccnc23)cc2cccc(C#Cc3cnn(C)c3)c2c1=O	0.5 to 1	5 to 10	5 to 10	
C[C@H](NC(=O)c1c(N)nn2cccnc12)c1cc2cccc(C#Cc3cnn(C)c3)c2c(=O)n1C1CCCCC1	1 to 5	5 to 10	5 to 10	
Cc1ccccc1-n1c([C@H](C)NC(=O)c2c(N)nn3cccnc23)cc2cccc(C#Cc3cnn(C)c3)c2c1=O	0.001 to 0.1	5 to 10	5 to 10	
C[C@H](NC(=O)c1c(N)nn2cccnc12)c1cc2cccc(C#Cc3cnn(C)c3)c2c(=O)n1-c1ccc(F)c(F)c1	0.1 to 0.5	5 to 10	5 to 10	
CNS(=O)(=O)CCn1c([C@H](C)NC(=O)c2c(N)nn3cccnc23)cc2cccc(C#Cc3cnn(C)c3)c2c1=O	0.001 to 0.1	5 to 10	1 to 5	
C[C@H](NC(=O)c1c(N)nn2cccnc12)c1cc2cccc(C=Cc3ccccc3)c2c(=O)n1-c1ccccc1	> 5	5 to 10	5 to 10	
C[C@H](NC(=O)c1c(N)nn2cccnc12)c1cc2cccc(C#Cc3cnn(C)c3)c2c(=O)n1C	0.1 to 0.5	5 to 10	0.5 to 1	
C[C@H](NC(=O)c1c(N)nn2cccnc12)c1nc2cccc(C#Cc3cnn(C)c3)c2c(=O)n1-c1ccccc1		5 to 10	5 to 10	0.1 to 0.5
C[C@H](NC(=O)c1c(N)nn2cccnc12)c1cc2cccc(C#Cc3cnn(C)c3)c2c(=O)n1-c1ccc(F)cc1	0.001 to 0.1	5 to 10	5 to 10	
Cc1cccc(-n2c([C@H](C)NC(=O)c3c(N)nn4cccnc34)cc3cccc(C#Cc4cnn(C)c4)c3c2=O)c1	0.1 to 0.5	5 to 10	5 to 10	
Cc1cc(C)n2nc(N)c(C(=O)N[C@@H](C)c3cc4cccc(C#Cc5cnn(C)c5)c4c(=O)n3-c3ccccc3)c2n1	0.1 to 0.5	5 to 10	5 to 10	
